Reference: patent publication US6706663B2, “Herbicidal 3-heterocyclic substituted benzisothiazole and benzisoxazole compounds” (Wyeth, priority 2000, dated 2004)

What was measured:
[1] = test system: ECHORC (Echinochloa oryzoides); test: Flooded paddy, preemergence weed control; type: in vivo, Echinochloa oryzoides (Ard.) Fritsch.; conditions: rated 3-4 weeks after treatment, 0-9 rating scale
Outline: (§1)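 Visual 0-9 rating versus control, scoring stand, vigor, malformation, size, chlorosis and overall appearance. Silt loam soil, propagules in top 0.5 cm; flood depth 1.5–3 cm held for the whole test; greenhouse.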

[2] = test system: TRZAWR (Wheat, Winter, cv Riband); test: Postemergence herbicidal evaluation; type: in vivo, Triticum aestivum; conditions: postemergence
Outline: (§2)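 Seedlings grown about two weeks in flats, sprayed, then kept under standard greenhouse care. Rated visually 4–5 weeks after treatment on a 0–9 scale (stand, vigour, malformation, size, chlorosis, overall appearance) relative to untreated control; repeat tests averaged.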

CYPIR (Cyperus iria) = test: Flooded paddy, preemergence weed control; type: in vivo; conditions: rated 3-4 weeks after treatment, 0-9 rating scale
Outline: as §1

GLXMA (Soybean) = test: Preemergence herbicidal evaluation; type: in vivo, Glycine max, (L.) Merr.; conditions: preemergence, rated 4-5 weeks after treatment
ZEAMX (Corn, Field) = test: Preemergence herbicidal evaluation; type: in vivo, Zea mays, L.; conditions: preemergence, rated 4-5 weeks after treatment
[3] = test system: MOOVA (Monochoria vaginalis); test: Flooded paddy, preemergence weed control; type: in vivo, Presl.; conditions: rated 3-4 weeks after treatment, 0-9 rating scale
Outline: as §1

SETVI (Setaria viridis) [4] = test: Postemergence herbicidal evaluation; type: in vivo, (L.) Beau; conditions: postemergence
Outline: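 Seedlings about two weeks old were sprayed with compound in 50/50 acetone/water plus 0.5% TWEEN 20, at the equivalent of about 0.0040 to 1.000 kg/ha. Plants were kept in a greenhouse and visually rated 0-9 against a control four to five weeks after treatment. Repeat tests were averaged.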

[5] = test system: GLXMAW (Soybean, Williams); test: Preemergence herbicidal evaluation; type: in vivo, Glycine max, (L.) Merr. cv Williams; conditions: preemergence, rated 4-5 weeks after treatment
SETVI (Setaria viridis) [6] = test: Preemergence herbicidal evaluation; type: in vivo, (L.) Beau; conditions: preemergence, rated 4-5 weeks after treatment
Outline: (§3)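 Scores (0–9) reflect visual comparison with control plants for stand, vigor, malformation, size and chlorosis. Seeds in potting soil received a post-planting spray of compound in aqueous acetone and grew in a greenhouse until assessment 4–5 weeks later.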

[7] = test system: ECHCG (Echinochloa crus-galli); test: Preemergence herbicidal evaluation; type: in vivo, (L.) Beau; conditions: preemergence, rated 4-5 weeks after treatment
Outline: as §3

[8] = test system: IPOHE (Ipomoea hederacea); test: Postemergence herbicidal evaluation; type: in vivo, (L.) Jacq.; conditions: postemergence
Outline: as §2

Structure (SMILES)	ECHORC herbicidal rating ([1]; rate 0.0320 kg/ha)	ECHORC herbicidal rating ([1]; rate 0.1250 kg/ha)	TRZAWR herbicidal rating ([2]; rate 0.0320 kg/ha)	TRZAWR herbicidal rating ([2]; rate 0.0620 kg/ha)	CYPIR herbicidal rating (CYPIR (Cyperus iria); rate 0.0320 kg/ha)	CYPIR herbicidal rating (CYPIR (Cyperus iria); rate 0.1250 kg/ha)	Preemergence herbicidal rating GLXMA (GLXMA (Soybean); rate 0.0620 kg/ha)	Preemergence herbicidal rating GLXMA (GLXMA (Soybean); rate 0.1250 kg/ha)	Preemergence herbicidal rating GLXMA (GLXMA (Soybean); rate 0.2500 kg/ha)	Preemergence herbicidal rating ZEAMX (ZEAMX (Corn, Field); rate 0.0620 kg/ha)	Preemergence herbicidal rating ZEAMX (ZEAMX (Corn, Field); rate 0.1250 kg/ha)	Preemergence herbicidal rating ZEAMX (ZEAMX (Corn, Field); rate 0.2500 kg/ha)	MOOVA herbicidal rating ([3]; rate 0.0320 kg/ha)	MOOVA herbicidal rating ([3]; rate 0.1250 kg/ha)	SETVI herbicidal rating (SETVI (Setaria viridis) [4]; rate 0.0320 kg/ha)	SETVI herbicidal rating (SETVI (Setaria viridis) [4]; rate 0.0620 kg/ha)	Preemergence herbicidal rating GLXMAW ([5]; rate 0.0620 kg/ha)	Preemergence herbicidal rating GLXMAW ([5]; rate 0.1250 kg/ha)	Preemergence herbicidal rating GLXMAW ([5]; rate 0.2500 kg/ha)	Preemergence herbicidal rating SETVI (SETVI (Setaria viridis) [6]; rate 0.0620 kg/ha)	further results
Cn1c(C(F)(F)F)cc(=O)n(-c2ccc3snc(C4OCC(CS(C)(=O)=O)O4)c3c2)c1=O (single isomer, unassigned) [Compound 86, 1-methyl-3-[3-[4-[(methylsulfonyl)methyl]-1,3-dioxolan-2-yl]-1,2-benzisothiazol-5-yl]-6-(trifluoromethyl)uracil]	0.0	3.0	2.5	3.0	0.0	0.0	5.0	9.0	9.0	5.0	8.0	9.0	5.0	9.0	8.0	9.0	7.0	9.0	9.0	7.5	Preemergence herbicidal rating SETVI (SETVI (Setaria viridis) [6]; rate 0.1250 kg/ha): 9.0; Preemergence herbicidal rating SETVI (SETVI (Setaria viridis) [6]; rate 0.2500 kg/ha): 9.0; Preemergence herbicidal rating ECHCG ([7]; rate 0.0620 kg/ha): 7.5; Preemergence herbicidal rating ECHCG ([7]; rate 0.1250 kg/ha): 9.0; Preemergence herbicidal rating ECHCG ([7]; rate 0.2500 kg/ha): 9.0; IPOHE herbicidal rating ([8]; rate 0.0320 kg/ha): 9.0; IPOHE herbicidal rating ([8]; rate 0.0620 kg/ha): 9.0
Cn1c(C(F)(F)F)cc(=O)n(-c2ccc3snc(C4OCC(CS(C)(=O)=O)O4)c3c2)c1=O (single isomer, unassigned) [Compound 87, 1-methyl-3-[3-[4-[(methylsulfonyl)methyl]-1,3-dioxolan-2-yl]-1,2-benzisothiazol-5-yl]-6-(trifluoromethyl)uracil]	0.0	0.0	3.0	4.0	0.0	5.0	9.0	9.0	9.0	5.5	8.0	8.5	0.0	8.0	6.0	9.0	9.0	9.0	9.0	6.0	Preemergence herbicidal rating SETVI (SETVI (Setaria viridis) [6]; rate 0.1250 kg/ha): 8.0; Preemergence herbicidal rating SETVI (SETVI (Setaria viridis) [6]; rate 0.2500 kg/ha): 9.0; Preemergence herbicidal rating ECHCG ([7]; rate 0.0620 kg/ha): 5.5; Preemergence herbicidal rating ECHCG ([7]; rate 0.1250 kg/ha): 6.5; Preemergence herbicidal rating ECHCG ([7]; rate 0.2500 kg/ha): 9.0; IPOHE herbicidal rating ([8]; rate 0.0320 kg/ha): 9.0; IPOHE herbicidal rating ([8]; rate 0.0620 kg/ha): 9.0
